Data on one compound can be found in patent US10159717B2, “Methods of treating cancer of the central nervous system” (Yeda Research and Development Co. Ltd., priority 2008, dated 2018).

The nature of data set [1]: Stability of oxaloacetate solutions. The class given is physicochemical. The conditions noted are these: cell culture medium. The protocol: To test the effect of oxaloacetate (OA) on glioma cells in vitro, C6 glioma cells were incubated with 1 mM oxaloacetate. Since oxaloacetate solutions are unstable, the cell culture medium was changed every day to allow the cells to be daily exposed to a fresh oxaloacetate solution.

The subject of data set [2] is C6 glioma. Kind of data set: C6 glioma implanted in rat striatum, tumor growth followed by MRI. The class given is in vivo. Particulars: 0.2M oxaloacetate in drinking water from day 7, MRI 10 days later, in average. The protocol:
Male SPD&OLD rats weighing 260-280 g were used and placed in individual cages. All experiments were conducted according to the guidelines of the institutional animal care and use committee of the Weizmann Institute of Science, Rehovot, Israel.
Rat C6 glioma cells were grown in DMEM medium supplemented with 10% FCS. 10^7 cells were plated on 100×20 mm dishes and grown to 80% confluence for two days, passaged at a dilution of 1:10 after 1-2 min exposure to 0.25% trypsin and plated on 7 plates 60×15 mm. The cells were grown to 80% confluence for two additional days. The cells were then trypsynized as above, washed once with sterile PBS and centrifuged for 15 min at 1200 rpm. Prior to centrifugation, the cells were counted in a hemocytometer. Following centrifugation, the medium was removed and the cells were diluted in sterile PBS to a final concentration […] was injected immediately intracranially. For that purpose, the rats were anesthetized with 1.5% Halothane and placed in a stereotactic apparatus. […]
Experiments on live animals were conducted on a Bio spec Avance™ system (Bruker Biospin, Ettlingen, Germany) with a 4.7 T 30-cm horizontal bore magnet. […] The volume of the tumor was assessed using the Surdriver program.
After establishing that oxaloacetate has no effect on glioma growth when grown under in vitro conditions, the effect of same in vivo was determined. […]

In the case of `O=C(O)CC(=O)C(=O)O` [oxaloacetate], in data set [1], the stability of solutions entry is listed as “unstable”. Moreover, the “Tumor spread, less than that of untreated animals that received drinking water only” value in data set [2] is “at least 10 folds”.
